Patent US9814696B2, “Use of coumarin derivatives for the preparation of drugs for treating skin diseases” (UNIVERSITE PIERRE ET MARIE CURIE (PARIS 6), priority 2011, dated 2017)
Values belong to the molecule of their own block, whether it stands above or below them.

Key:
Format in all cases: biochemical
[1] = target: KLK7 (Homo sapiens, UniProt P49862); test: KLK7 enzyme inhibition assay, fluorogenic substrate Suc-Leu-Leu-Val-Tyr-AMC; conditions: for inhibition at 50 µM / IC50 / inhibition at 10 µM / inhibition at 100 µM: 37° C., 15 min of incubation, pH 8; for selective activity against enzyme: KLK7: Table B, among KLK5, KLK7 and KLK14; for IC50: Table A, read-out: IC50 (μM) KLK7
Chain of KLK7 (P49862 30-253): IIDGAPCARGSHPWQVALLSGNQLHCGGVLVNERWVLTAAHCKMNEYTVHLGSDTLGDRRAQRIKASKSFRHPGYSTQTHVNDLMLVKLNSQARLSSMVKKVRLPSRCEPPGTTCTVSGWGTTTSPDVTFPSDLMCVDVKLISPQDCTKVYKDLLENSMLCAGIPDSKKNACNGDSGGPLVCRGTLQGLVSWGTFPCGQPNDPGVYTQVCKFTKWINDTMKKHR
Protocol: (§1) Kallikreins KLK5, KLK7 and KLK14 activities were determined by monitoring the hydrolysis of the appropriate fluorogenic substrate (λexc=355, λem=460 nm) for 15 min at 37° C. in the presence of the untreated kallikrein (control) or kallikrein that had been incubated with a test compound. Substrate and compounds were previously dissolved in DMSO, with the final solvent concentration kept constant at 2% (v/v) (KLK 5 and 14), and 4% (v/v) (KLK7). The composition of the activity buffers (pH 8.0) was 100 mM Tris-HCl, 150 mM NaCl, 0.01% (v/v) Tween 20 for the KLK5 assay, and 100 mM Tris-HCl, 1M NaCl, 0.01% (v/v) Tween 20 in the KLK 7 and 14 assays. The final concentrations were 0.6 nM (KLK5) and 100 μM (Boc-Val-Pro-Arg-AMC) (KLK5 assay), 8 nM (KLK7) and 40 μM (Suc-Leu-Leu-Val-Tyr-AMC, AMC: 7-amino-4-methyl-coumarin) (KLK7 assay), and 0.17 nM (KLK14) and 10 μM (Boc-Val-Pro-Arg-AMC) (KLK14 assay). Using the appropriate substrate, the coumarinic compounds (0.01-100 μM) were tested in duplicate for each inhibitor concentration to detect their inhibitory potential. The enzyme and the inhibitors were incubated for 15 min before the determination of the enzyme activity. Initial rates determined in control experiments (V0) were considered to be 100% of the peptidase activity; initial rates below 100% were considered to be inhibitions. The inhibitory activity of compounds was expressed as IC50 (inhibitor concentrations giving 50% inhibition). The values of IC50 were calculated by fitting the experimental data to the equation: % Inhibition=100×(1−Vi/V0)=100[I]0/(IC50+[I]0), or equation: % Inhibition=100[I]0^nH/(IC50^nH+[I]0^nH),nH is the Hill number.
(§2) The tests were realized at 37° C. after 15 min of incubation at pH 8.

[2] = target: T1, KLK5 (Homo sapiens, UniProt Q9Y337); test: KLK5 enzyme inhibition assay, fluorogenic substrate Boc-Val-Pro-Arg-AMC; conditions: for inhibition at 100 µM / IC50 / inhibition at 50 µM: 37° C., 15 min of incubation, pH 8; for IC50: Table A, read-out: IC50 (μM) KLK5; for selective activity against enzyme: KLK5: Table B, among KLK5, KLK7 and KLK14
T1 sequence (Q9Y337 23-293): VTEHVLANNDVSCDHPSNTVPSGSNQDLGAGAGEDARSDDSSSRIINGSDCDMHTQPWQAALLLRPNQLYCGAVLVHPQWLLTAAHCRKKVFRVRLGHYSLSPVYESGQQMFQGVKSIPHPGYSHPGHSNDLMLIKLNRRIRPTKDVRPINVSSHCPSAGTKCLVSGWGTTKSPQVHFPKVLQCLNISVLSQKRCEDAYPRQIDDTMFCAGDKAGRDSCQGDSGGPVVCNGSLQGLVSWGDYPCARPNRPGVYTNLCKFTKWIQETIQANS
Protocol: as §1, §2

[3] = target: T2, KLK14 (Homo sapiens, UniProt Q9P0G3); test: KLK14 enzyme inhibition assay, fluorogenic substrate Boc-Val-Pro-Arg-AMC; conditions: for inhibition at 100 µM / IC50 / inhibition at 50 µM: 37° C., 15 min of incubation, pH 8; for IC50: Table A, read-out: IC50 (μM) KLK14; for selective activity against enzyme: KLK14: Table B, among KLK5, KLK7 and KLK14
T2 sequence (Q9P0G3 25-251): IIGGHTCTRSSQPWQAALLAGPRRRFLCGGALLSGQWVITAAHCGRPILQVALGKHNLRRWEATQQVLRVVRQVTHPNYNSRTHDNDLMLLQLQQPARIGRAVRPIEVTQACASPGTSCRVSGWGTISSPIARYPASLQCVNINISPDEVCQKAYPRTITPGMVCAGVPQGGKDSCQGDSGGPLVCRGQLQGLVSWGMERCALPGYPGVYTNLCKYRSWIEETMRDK
Protocol: as §1, §2

SMILES: O=C(Oc1ccccc1)c1cc2cc(O)ccc2oc1=O [MH8]
inhibition at 50 µM [1]: 25%
selective activity against enzyme: KLK7 [1]: KLK7

SMILES: CC(=O)OCc1ccc2oc(=O)c(C(=O)Oc3ccccc3I)cc2c1 [SMB28, 2-iodophenyl 6-acetoxymethyl-2-oxo-2H-1-benzopyran-3-carboxylate]
IC50 [1]: 82.2 ± 13.2 µM
selective activity against enzyme: KLK7 [1]: KLK7

SMILES: O=C(Oc1cccc(Cl)c1)c1cc2cc(CCl)ccc2oc1=O [LP8]
inhibition at 100 µM [2]: 49%
IC50 [1]: 0.103 ± 0.005 µM
selective activity against enzyme: KLK7 [1]: KLK7
inhibition at 100 µM [3]: 40%

SMILES: CCOC(=O)c1cc2cc(C)ccc2oc1=O [Compound D5]
inhibition at 100 µM [2]: 90%
inhibition at 100 µM [1]: 61%
inhibition at 100 µM [3]: 38%

SMILES: CC(=O)c1cc2cc(C)ccc2oc1=O [Compound D9]
inhibition at 100 µM [2]: 80%
selective activity against enzyme: KLK5 [2]: KLK5
inhibition at 100 µM [3]: 40%

SMILES: CC(=O)OCc1ccc2oc(=O)c(C(=O)Oc3cccc(Br)c3)cc2c1 [IK9]
inhibition at 50 µM [2]: 22%
selective activity against enzyme: KLK5 [2]: KLK5

SMILES: CS(=O)(=O)NCc1ccc2oc(=O)c(C(=O)Oc3cccc(Cl)c3)cc2c1 [MH24]
IC50 [1]: 33.2 ± 1.4 µM
inhibition at 50 µM [3]: 42%

SMILES: CC(=O)NCc1ccc2oc(=O)c(C(=O)Oc3ccc(Br)cc3)cc2c1 [MH52]
inhibition at 10 µM [1]: 58%
selective activity against enzyme: KLK7 [1]: KLK7

SMILES: O=C(Oc1cc([N+](=O)[O-])ccc1[N+](=O)[O-])c1cc2cc(CCl)ccc2oc1=O [CFL21]
IC50 [2]: 121 µM
inhibition at 100 µM [1]: 22%
inhibition at 100 µM [3]: 43%
selective activity against enzyme: KLK14 [3]: KLK14

SMILES: CCOC(=O)c1cc2cc(COC(C)=O)ccc2oc1=O [LP43]
inhibition at 100 µM [2]: 49%
inhibition at 100 µM [1]: 30%
inhibition at 100 µM [3]: 49%

SMILES: O=C(Oc1cncc(Cl)c1)c1cc2cc(CCl)ccc2oc1=O [LP2]
IC50 [1]: 0.128 ± 0.03 µM
selective activity against enzyme: KLK7 [1]: KLK7

SMILES: O=C(Oc1ccccc1Cl)c1cc2cc(O)ccc2oc1=O [MH14]
inhibition at 50 µM [1]: 35%
selective activity against enzyme: KLK7 [1]: KLK7

SMILES: O=C(O)c1ccc(Cl)cc1OC(=O)c1cc2cc(CCl)ccc2oc1=O [IK5]
IC50 [2]: 36.9 ± 4.2 µM
IC50 [1]: 5.8 ± 0.2 µM
IC50 [3]: 89 ± 10 µM

SMILES: COC(=O)c1ccc(OC(=O)c2cc3cc(CCl)ccc3oc2=O)cc1 [IK13]
inhibition at 100 µM [1]: 34%
inhibition at 100 µM [3]: 72%
selective activity against enzyme: KLK14 [3]: KLK14

SMILES: NCc1ccc2oc(=O)c(C(=O)Oc3cccc(Br)c3)cc2c1 [IK48]
inhibition at 50 µM [2]: 27%
IC50 [1]: 9.7 ± 1.3 µM
inhibition at 50 µM [3]: 32%

SMILES: CC(=O)OCc1ccc2oc(=O)c(C(=O)Oc3cccc(Cl)c3)cc2c1 [LP46]
inhibition at 50 µM [2]: 31%
IC50 [3]: 31 ± 6 µM

Other lines, results leading:

inhibition at 10 µM [1]: 52%
selective activity against enzyme: KLK7 [1]: KLK7
SMILES: CC(=O)OCc1ccc2oc(=O)c(C(=O)Oc3ccccc3Br)cc2c1 [SMB26]

IC50 [2]: 54 ± 2 µM
IC50 [1]: 26.8 ± 1.5 µM
IC50 [3]: 73 ± 14 µM
SMILES: COC(=O)c1cc2cc(CCl)ccc2oc1=O [MFS2]

inhibition at 100 µM [2]: 50%
IC50 [1]: 0.209 ± 0.006 µM
selective activity against enzyme: KLK7 [1]: KLK7
inhibition at 100 µM [3]: 100%
SMILES: O=C(Oc1ccccc1Cl)c1cc2cc(CCl)ccc2oc1=O [MFS36]

IC50 [1]: 5.01 ± 0.4 µM
inhibition at 50 µM [3]: 60%
SMILES: CC(=O)OCc1ccc2oc(=O)c(C(=O)Oc3cc(Cl)ccc3Cl)cc2c1 [CFL4]

inhibition at 100 µM [2]: 40%
IC50 [1]: 0.9 ± 0.4 µM
inhibition at 100 µM [3]: 73%
SMILES: O=C(Oc1cc(F)ccc1[N+](=O)[O-])c1cc2cc(CCl)ccc2oc1=O [CFL16]

inhibition at 50 µM [2]: 39%
IC50 [1]: 20.9 ± 0.9 µM
inhibition at 100 µM [3]: 48%
SMILES: CCOC(=O)c1cc2cc(CCl)ccc2oc1=O [MFS3]

IC50 [2]: 44 ± 10 µM
IC50 [3]: 68 ± 9 µM
SMILES: Cc1ccc2oc(=O)c(C(=O)Oc3cc(F)ccc3[N+](=O)[O-])cc2c1 [CFL25]
